The supplement of paper PMC10307832

Key:
Assay in all cases: relative viability (nuclei count vs DMSO), 5 days (fraction); higher = more cells survive
[1] = compound: O=c1[nH]cc(F)c(=O)[nH]1 [5-Fluorouracil] + Nc1ncn([C@H]2C[C@H](O)[C@@H](CO)O2)c(=O)n1 [Decitabine] (partner 2 µM)
Method in brief: (§1)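 Lung cancer cell lines, seeded in 1536-well plates, were treated the following day by pin tool with a single drug or with five library-drug doses (not always all listed) in √10 steps on top of a fixed anchor-drug dose. Cells were fixed and nuclei stained in one step after 5 days, and nuclei were counted. Relative viability is the nuclei count for treated wells divided by that for vehicle wells, reported as medians of duplicate plates.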

[2] = compound: O=c1[nH]cc(F)c(=O)[nH]1 [5-Fluorouracil] + C[C@]1(O)C[C@@H](c2nc(-c3ccc4ccc(-c5ccccc5)nc4c3)c3c(N)nccn32)C1 [Linsitinib] (partner 1 µM)
Method in brief: as §1

[3] = compound: CN[C@@H]1C[C@H]2O[C@@](C)([C@@H]1OC)n1c3ccccc3c3c4c(c5c6ccccc6n2c5c31)C(=O)NC4 [Staurosporine] + CC1(C)CCC(c2ccc(Cl)cc2)=C(CN2CCN(c3ccc(C(=O)NS(=O)(=O)c4ccc(N[C@H](CCN5CCOCC5)CSc5ccccc5)c(S(=O)(=O)C(F)(F)F)c4)cc3)CC2)C1 [Navitoclax] (partner 0.5 µM)
Method in brief: as §1

Sulindac + Linsitinib = compound: CC1=C(CC(=O)O)c2cc(F)ccc2/C1=C\c1ccc([S+](C)[O-])cc1 [Sulindac] + C[C@]1(O)C[C@@H](c2nc(-c3ccc4ccc(-c5ccccc5)nc4c3)c3c(N)nccn32)C1 [Linsitinib] (partner 1 µM)
Method in brief: as §1

[4] = compound: O=c1[nH]cc(F)c(=O)[nH]1 [5-Fluorouracil] + Nc1nc2[nH]cc(CCc3ccc(C(=O)N[C@@H](CCC(=O)O)C(=O)O)cc3)c2c(=O)[nH]1 [Pemetrexed] (partner 0.2 µM)
Method in brief: as §1

UMC-11
relative viability ([1]; first compound 0.02 µM): 0.593 | relative viability ([1]; first compound 0.2 µM): 0.565 | relative viability ([1]; first compound 0.6325 µM): 0.497 | relative viability ([2]; first compound 0.02 µM): 0.969 | relative viability ([2]; first compound 0.2 µM): 0.674 | relative viability ([2]; first compound 0.6325 µM): 0.512 | relative viability ([2]; first compound 2 µM): 0.363 | relative viability ([3]; first compound 0.005 µM): 0.265 | relative viability ([3]; first compound 0.01581 µM): 0.158 | relative viability ([3]; first compound 0.05 µM): 0.141 | relative viability ([3]; first compound 0.1581 µM): 0.106 | relative viability ([3]; first compound 0.5 µM): 0.103 | relative viability (Sulindac + Linsitinib; first compound 0.08 µM): 1.27 | relative viability (Sulindac + Linsitinib; first compound 0.253 µM): 1.02 | relative viability (Sulindac + Linsitinib; first compound 0.8 µM): 0.815 | relative viability (Sulindac + Linsitinib; first compound 2.53 µM): 1.06 | relative viability (Sulindac + Linsitinib; first compound 8 µM): 1.07 | relative viability ([4]; first compound 0.02 µM): 0.807 | relative viability ([4]; first compound 0.2 µM): 0.563 | relative viability ([4]; first compound 0.6325 µM): 0.508
